According to patent US5705531A, “1,5-disubstituted 7A-methylperhydroinden-3A-ol derivatives, useful in treating cardiovascular disorders, processes for their preparation and pharmaceutical compositions containing the same” (Sigma-Tau Industrie Farmaceutiche Riunite S.p.A., priority 1994, dated 1998):
Where a name gives a salt, the structure may show the parent alone. Each block holds one compound with its values, some of them ahead of it.

How the values were obtained:
Na^+,K^+ -ATPase [1] = biological target: T1, Na^+,K^+ -ATPase (Homo sapiens, UniProt P05023); test: displacement of the specific 3H-ouabain binding from the purified Na+,K+-ATPase receptor
T1 construct: Na^+,K^+ -ATPase receptor purified according to Jorghensen; from tissue
Source text: (§1) To test the affinity for the receptor site of the Na^+,K^+ -ATPase and the agonist or antagonist activity on the enzyme, the following tests were used:
a) displacement of the specific ^3 H-ouabain binding from the Na^+,K^+ -ATPase receptor purified according to Jorghensen (Jorghensen P., BBA, 1974, 356, 36) and Erdmann (Erdmann E. et al., Arzneim. Forsh., 1984, 34, 1314);

Na^+,K^+ -ATPase [2] = biological target: T1, Na^+,K^+ -ATPase; test: inhibition of the activity of the purified Na+,K+-ATPase (% hydrolysis of 32P-ATP); assay type: biochemical
Source text: as §1
b) inhibition of the activity of the purified Na^+,K^+ -ATPase measured as % of hydrolysis of ^32 P-ATP in presence and in absence of the tested compound (Doucet A. et al., Am. J. Physiol., 1986, 251, F851)

[3] = tested on: spontaneous hypertensive rats (MHS); test: effect of 5 week-treatment on the development of hypertension; SBP and HR by tail cuff method; assay type: in vivo, rat (MHS); settings: 20 mg/Kg/os daily in Methocel 0.5%, 5 weeks; for SBP: n=7, controls 172 +/- 5,0; for HR: n=7, controls 380 +/- 6,3
Method: Systolic blood pressure (SBP) and heart rate (HR) were measured, by the tail cuff method, in young prehypertensive male rats (MHS or SHR) strains before the development of hypertension (4 weeks of age) for recording the basal values of SBP. Groups of 7 rats were formed and subdivided in control and treated groups. The compound, suspended in Methocel 0.5% (w/v), was orally given daily for at least 5 weeks to the treated groups. The control group received only Methocel.
SBP and HR were measured weekly 6 and 24 hrs after treatment. After 5 weeks of treatment, when hypertension was fully developed in the control group (9 weeks of age), washout was started for at least one week, to verify whether the treatment maintained blood pressure low or reestablished the basal values.

[4] = 3H-ouabain, purified Na+,K+-ATPase, read-out: Binding 3H-Ouab. Displacement log IC50 (converted)
[5] = 32P-ATP hydrolysis, purified Na+,K+-ATPase, read-out: Inhibitory Activity log IC50 (converted)

SMILES: CN(C)CCONC[C@H]1CC[C@]2(O)C[C@@H](c3ccccc3)CC[C@]12C [I-df, (1S,3aS,5S,7aR)-1-(2-Dimethylaminoethoxyamino)methyl-5-phenyl-7a-methylperhydroinden-3a-ol oxalate]
IC50 (Na^+,K^+ -ATPase [1]): 6.31 µM
IC50 (Na^+,K^+ -ATPase [2]): 50.1 µM

SMILES: CN(C)CCONC[C@H]1CC[C@]2(O)C[C@@H](c3cccc(O)c3)CC[C@]12C [I-di, (1S,3aS,5S,7aR)-1-(2-Dimethylaminoethoxyamino)methyl-5-(3-hydroxyphenyl)-7a-methylperhydroinden-3a-ol oxalate]
IC50 (Na^+,K^+ -ATPase [1]): 7.94 µM
IC50 (Na^+,K^+ -ATPase [2]): 50.1 µM

SMILES: C[C@]12CC[C@H](c3ccc(CO)cc3)C[C@@]1(O)CC[C@@H]2/C=N/OCCN [I-bb, (1S,3aS,5S,7aR)-1-[(E)-2-Aminoethoxyimino]methyl-5-(4-hydroxymethylphenyl)-7a-methylperhydroinden-3a-ol]
IC50 (Na^+,K^+ -ATPase [1]; [4]): 1.58 µM
IC50 (Na^+,K^+ -ATPase [2]; [5]): 25.1 µM

SMILES: Cc1ccc([C@H]2CC[C@]3(C)[C@@H](/C=N/OCCN(C)C)CC[C@]3(O)C2)cc1 [I-bh, (1S,3aS,5S,7aR)-1-[(E)-2-Dimethylaminoethoxyimino]methyl-5-(4-methylphenyl)-7a-methylperhydroinden-3a-ol]
IC50 (Na^+,K^+ -ATPase [1]; [4]): 6.31 µM
IC50 (Na^+,K^+ -ATPase [2]; [5]): 50.1 µM

SMILES: CN(C)CCO/N=C/[C@H]1CC[C@]2(O)C[C@@H](c3ccc(CO)cc3)CC[C@]12C [I-bc, (1S,3aS,5S,7aR)-1-[(E)-2-Dimethylaminoethoxyimino]methyl-5-(4-hydroxymethylphenyl)-7a-methylperhydroinden-3a-ol]
IC50 (Na^+,K^+ -ATPase [1]; [4]): 5.01 µM
IC50 (Na^+,K^+ -ATPase [2]; [5]): 50.1 µM
SBP [3]: 160 +/- 7,8 mm Hg
HR [3]: 377 +/- 10,5 bEATS/min.

SMILES: CN(C)CCO/N=C/[C@H]1CC[C@]2(O)C[C@@H](c3ccccc3)CC[C@]12C [I-ap, (1S,3aS,5S,7aR)-1-[(E)-2-Dimethylaminoethoxyimino]methyl-5-phenyl-7a-methylperhydroinden-3a-ol]
IC50 (Na^+,K^+ -ATPase [1]; [4]): 2 µM
IC50 (Na^+,K^+ -ATPase [2]; [5]): 39.8 µM
SBP [3]: 155 +/- 4,3 mm Hg
HR [3]: 370 +/- 10,5 bEATS/min.

SMILES: CN(C)CCO/N=C/[C@H]1CC[C@]2(O)C[C@@H](c3cccc(O)c3)CC[C@]12C [I-au, (1S,3aS,5S,7aR)-1-[(E)-2-Dimethylaminoethoxyimino]methyl-5-(3-hydroxyphenyl)-7a-methylperhydroinden-3a-ol]
IC50 (Na^+,K^+ -ATPase [1]; [4]): 6.31 µM
IC50 (Na^+,K^+ -ATPase [2]; [5]): 50.1 µM

SMILES: CN(C)CCO/N=C/[C@H]1CC[C@]2(O)C[C@@H](c3ccc(O)cc3)CC[C@]12C [I-ax, (1S,3aS,5S,7aR)-1-[(E)-2-Dimethylaminoethoxyimino]methyl-5-(4-hydroxyphenyl)-7a-methylperhydroinden-3a-ol]
IC50 (Na^+,K^+ -ATPase [1]; [4]): 1.58 µM
IC50 (Na^+,K^+ -ATPase [2]; [5]): 39.8 µM
SBP [3]: 156 +/- 4,6 mm Hg
HR [3]: 383 +/- 11,4 bEATS/min.

IC50 (Na^+,K^+ -ATPase [1]; [4]): 12.6 µM
IC50 (Na^+,K^+ -ATPase [2]; [5]): 63.1 µM
SMILES: CN(C)CCO/N=C/[C@H]1CC[C@]2(O)C/C(=C\CCO)CC[C@]12C [I-bx, (1S,3aS,7aR)-1-[(E)-2-Dimethylaminoethoxyimino]methyl-5-[(Z)-3-hydroxypropyliden]-7a-methylperhydroinden-3a-ol]

IC50 (Na^+,K^+ -ATPase [1]; [4]): 20 µM
IC50 (Na^+,K^+ -ATPase [2]; [5]): 63.1 µM
SMILES: CN(C)CCO/N=C/[C@H]1CC[C@]2(O)C/C(=C/CCO)CC[C@]12C [I-by, (1S,3aS,7aR)-1-[(E)-2-Dimethylaminoethoxyimino]methyl-5-[(E)-3-hydroxypropyliden]-7a-methylperhydroinden-3a-ol]

SMILES: Cc1ccc([C@H]2CC[C@]3(C)[C@@H](/C=N/OCCN)CC[C@]3(O)C2)cc1 [I-bg, (1S,3aS,5S,7aR)-1-[(E)-2-Aminoethoxyimino]methyl-5-(4-methylphenyl)-7a-methylperhydroinden-3a-ol oxalate]
IC50 (Na^+,K^+ -ATPase [1]): 3.98 µM
IC50 (Na^+,K^+ -ATPase [2]): 31.6 µM
